These results are taken from US20150141460A1, “Anti-inflammatory Compositions” (Cambridge Enterprise Limited, priority 2007, published 2015).

In series [1] the test system is RANTES induced migration of THP-1 cells. Description: ChemoTx transwell migration assay, RANTES induced migration of THP-1 cells. As to conditions: Homo sapiens; THP-1 cell line; maximal dose of chemoattractant; read-out: ED50 RANTES induced migration. The class given is cell-based. As for the experimental part: In principle, this assay consists of two chambers separated by a porous membrane. The chemoattractant is placed in the lower compartment and the cells are placed in the upper compartment. After incubation for a period at 37° C. the cells move towards the chemoattractant, and the number of cells in the lower compartment is proportional to the chemoattractant activity (relative to a series of controls).
Next, the chemoattractant solution to be placed in the lower compartment is prepared. For example, MCP-1 is diluted in GBSS+BSA to give a final concentration of 25 ng/ml. This is divided into two pots, as for the cell suspension. To one pot, the test compound is added to the same final concentration as was added to the cell suspension, while to the other pot an equal volume of GBSS+BSA plus vehicle as appropriate (e.g., not more than 1% DMSO) is added. Alternatively, other chemokines may be used (SDF-1α at 7.5 ng/ml; RANTES at 50 ng/ml; IL-8 at 10 ng/ml using neutrophils as the target cell population). […]
The impact of the test substance is calculated by comparing the chemoattractant-induced migration which occurred in the presence or absence of various concentrations of the test substance. Typically, the inhibition of migration is expressed as a percentage of the total chemoattractant-induced migration which was blocked by the presence of the compound. […]

Series [2] concerns chemokine-induced migration. Description: BSCI potency: inhibition of chemokine-induced migration in vitro (general statements). The class given is cell-based.
A short description of series [3]: Pharmacokinetics following a single dose in rat (1 mg/kg iv, 3 mg/kg oral), LC-MS/MS, one-compartment model. The class given is in vivo. As for the experimental part:
Compounds were administered as a single dose (either 1 mg/kg bodyweight in 5% DMSO via the intravenous route or 3 mg/kg in 1% carboxymethylcellulose via the oral route) to three adult rats (using different rats for each compound and each route of administration).
Blood was then sampled at various time points (including just prior to dose administration) out to 24 hrs post dose, and the level of the various compounds was assessed using a validated LC-MS/MS assay. Briefly, 3-5 μl of the deproteinised sample was applied to a Waters Atlantis (C18 20×2.1 mm, 3 μm bead size) reverse phase chromatography column equilibrated in 0.1% formic acid in 95:5 water:actetonitrile. Over 3.5 minutes bound material was gradient eluted reaching 0.1% formic acid in 5:95 water:acetonitrile, followed by a step gradient back to 0.1% formic acid in 95:5 water:acetonitrile. The column eluent was then directed to an Applied Biosystems API 4000/3200 QTrap MS/MS mass spectrometer, with a TurboIonspray™ ion source operating in positive ion mode. The interface temperature was set at 650° C., with a 40 ms dwell time for each MRM transition, monitoring the following ions:
The internal standard in each determination was the related compound (S)-3-(2′,2′-dimethyl-propanoylamino)-caprolactam, which was spiked into the sample prior to deproteinization. The lower limit of quantitation (LLOQ) for this assay was 2.4 ng/ml for each compound except (I′), where it was 38.1 ng/ml.
Following LC-MS/MS analysis of each collected sample, the pharmacokinetic disposition of the compound was modelled using Kinetica software, a well known software package for such applications.
Compounds (VI) and (VII) were subject to pharmacokinetic analysis in rat using exactly the same protocols previous applied for compounds (I) through (V) in example 1.
We therefore subjected (VIII) to pharmacokinetic analysis in rat using exactly the same protocols previous applied for compounds (I′) through (VII) in examples 1 and 7.
The isolated (R)-enantiomer of (I) was therefore synthesised (exactly as described herein for the isolated (S)-enantiomer, but replacing the (S)-ornithine starting material with commercially available (R)-ornithine of high stereochemical purity), and the PK properties of this agent, in rat, was determined using the identical methodology described above (see Examples 1, 7 and 8).

On to `CC(C)(C)C(=O)N[C@H]1CCCNC1=O` [Compound (I′), (S)-3-(2′,2′-dimethylpropanoylamino)-tetrahydropyridin-2-one], for which the EC50 in series [1] is 0.08 nM. Besides, the “potency as a BSCI, fold more potent than the (R)-enantiomer” value in series [2] is 5-25 fold. In series [3], the “clearance, times lower than for the other lactam BSCIs” value is listed as “more than 10 times” and the “plasma half-life, fold longer than the other compounds” value came to 10 fold. Besides, the AUC(0-t) in series [3] (blood, single oral dose 3 mg/kg in 1% CMC, Tables 7-9, read-out: Exposure (min · ng/ml), oral exposure AUC 0-t (converted)) is 15600 ng·h/mL. In series [3] (oral 3 mg/kg), the “oral exposure, fold higher than the next best compound (V)” value is on record as roughly 20 fold.

For the compound `O=C1NCCCC[C@@H]1NC(=O)C12CC3CC(CC(O)(C3)C1)C2` [Compound (V), 3-(3′-hydroxyadamantyl-1-carbonylamino)-caprolactam], the EC50 in series [1] was 0.25 nM. For the same compound, the “minor t½β” value in series [3] was 1.83 h.
